One test has as its target dephosphorylated PDK1 (Homo sapiens (Human), UniProt O15530). The experiment in a line: PDK1 kinase assay (coupled PDK1/AKT/FAM-crosstide, IMAP). Type of test: biochemical. The conditions noted are these: 25 nM un-phosphorylated PDK1, 24 μM ATP; read-out: Inhibition of dephospo-PDK1 in vitro IC50. The method, then:
A PDK1 kinase assay was performed as follows. PDK1 (amino acids 51-360) and AKT2 (amino acids 140-467 fused to PIFtide, amino acids […]) were expressed as N-terminally tagged GST fusion proteins in insect cells and purified to greater than 90% homogeneity. PDK1 protein was divided into two fractions, one of which was subsequently dephosphorylated. To generate dephosphorylated PDK1, the PDK1 was reacted with GST-tagged lambda-phosphatase in vitro. GST was subsequently cleaved proteolytically for both phosphorylated and dephosphorylated PDK1. Protein preparations were run on glutathione Sepharose columns to remove GST and GST-tagged lambda-phosphatase, if present. Phosphorylated PDK1 and dephosphorylated PDK1 were verified by mass-spectrometry. Enzyme activity was determined in a coupled PDK1/AKT/FAM-crosstide assay using either phosphorylated or unphosphorylated PDK1 and phosphorylation of FAM-crosstide was determined by standard IMAP protocol (Molecular Devices). For inhibition studies, compounds were titrated 3-fold in DMSO and diluted 40-fold into assay buffer (10 mM Tris HCl pH7.2; 10 mM MgCl2; 0.01% Triton X-100; 1 mM DTT) containing PDK1, AKT2, and FAM-crosstide. (final concentrations: 25 nM un-phosphorylated PDK1 or 0.5 nM phosphorylated PDK1, 30 nM unphosphorylated AKT2, and 100 nM crosstide substrate). The kinase reaction was initiated by adding ATP to a final concentration of 24 μM for both forms of PDK1 and incubated at 25° C. for 30 min. To detect assay product, the kinase reaction was combined with Progressive Binding Solution (1:600 Progressive Binding Reagent, 50% Buffer A, 50% Buffer B, Molecular Devices) in a 1:3 ratio. The mixture was incubated for 2 hours at 25° C. and the plate was scanned on an Analyst AD with excitation at 485 nm and emission at 530 nm. The fluorescence polarization value “P” is defined by the equation below. The value “mP” is generated by multiplying the P value for each reaction well by a factor of 1000. The value “ΔmP” for each well is the mP value for that well minus the mP value for the average negative control. P=(Fpar−Fperp)/(Fpar+Fperp) Eq.:
Where “par” is fluorescence intensity parallel to the excitation plane; and “perp” is fluorescence intensity perpendicular to the excitation plane. ΔmP values were plotted as a function of compound concentration and the data were analyzed with a 4-parameter fit using GraphPad Prism software.

A further test deals with phosphorylated PDK1 (Homo sapiens (Human), UniProt O15530). The description is as above. The test is classed as biochemical. The following applies: 0.5 nM phosphorylated PDK1, 24 μM ATP; read-out: Inhibition of phospo-PDK1 in vitro IC50.
Sequence of phosphorylated PDK1 (O15530 51-360): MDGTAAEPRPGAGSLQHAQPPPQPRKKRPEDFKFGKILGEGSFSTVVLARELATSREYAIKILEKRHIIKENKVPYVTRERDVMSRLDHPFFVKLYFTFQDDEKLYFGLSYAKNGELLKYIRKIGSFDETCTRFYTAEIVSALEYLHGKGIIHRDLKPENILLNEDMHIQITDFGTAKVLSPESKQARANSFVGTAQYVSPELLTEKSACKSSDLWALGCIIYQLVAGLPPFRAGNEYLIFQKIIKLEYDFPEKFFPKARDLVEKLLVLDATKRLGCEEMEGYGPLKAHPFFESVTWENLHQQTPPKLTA
The subject of the next test is phospho-akt (Thr308). The experiment in a line: phospho-akt (Thr308) MSD ELISA in PC-3 cells. Type of test: cell-based. The following applies: Homo sapiens, PC-3, 2 h. An outline of the steps:
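PC-3 cells plated overnight in 10% FBS medium, then treated with three-fold serial compound dilutions in serum-free medium; DMSO-only wells as high control. Lysates captured on BSA-blocked MSD plates overnight at 4 degrees, detection antibody 1 hr RT, electrochemiluminescence read on MSD reader.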
In general terms: An ELISA detects its analyte on a solid surface through an enzyme-linked reagent.

Where [1] appears, read: PC-3 cells, 2 hours, no serum, read-out: Inhibition of P308 Akt in cells using MSD EC50.
Setting [2] is: PC-3 cells, 2 hours, no serum, read-out: Reduction of Cellular Levels of Akt p308 By MSD ELISA (EC50 μM).

SMILES strings stand for the structures. Like-named read-outs stand apart in the source and are kept apart here. A value given as a limit tells only on which side of the number the result lay.

Here are results for 38 compounds from patent US9873693B2 (Sunesis Pharmaceuticals, Inc., priority 2006, dated 2018).

Sequence of dephosphorylated PDK1 (O15530 51-360): as above

As for `O=C(NCc1cccc(-c2c[nH]c3ncccc23)c1)c1cccc(Nc2ccccc2)n1` [Cpd 54], the IC50 at dephosphorylated PDK1 and at phosphorylated PDK1 was below 500 nM throughout.

Consider `O=C1Cc2ccc(/C=C/CNC(=O)c3cc(I)cn(Cc4cc(F)c(F)c(F)c4)c3=O)cc2N1` [Cpd 178], for which the IC50 at dephosphorylated PDK1 and at phosphorylated PDK1 was below 500 nM each time.

Take `COc1ccnc(NCCC#CCCNC(=O)c2cc(F)cn(Cc3cccc(F)c3)c2=O)n1` [Cpd 258]: the IC50 on dephosphorylated PDK1 and on phosphorylated PDK1 was below 500 nM in each case.

As for `CNC(=O)C[C@@H](NC(=O)c1cccn(Cc2ccc(F)c(F)c2)c1=O)c1ncc(-c2c[nH]c3ncccc23)o1` [Cpd 248], the IC50 (usually the concentration that inhibits the measured activity by half) at dephosphorylated PDK1 was below 500 nM.

Regarding `O=C(NCCCCc1c[nH]c2ncccc12)c1cccn(Cc2cc(F)c(F)c(F)c2)c1=O` [Cpd 271], the IC50 on dephosphorylated PDK1 and on phosphorylated PDK1 was below 500 nM each time.

On to `O=C(NCc1nc(-c2c[nH]c3ncccc23)cs1)c1cc(Cl)cn(Cc2ccc(Cl)cc2)c1=O` [Cpd 273], for which the half-inhibitory concentration (IC50) on dephosphorylated PDK1 and at phosphorylated PDK1 was below 500 nM each time.

Turning to `Nc1ncnc2[nH]nc(-c3cccc(CNC(=O)c4cccn(Cc5ccc(F)c(F)c5)c4=O)c3)c12` [Cpd 5], the IC50 at dephosphorylated PDK1 and on phosphorylated PDK1 was below 500 nM throughout.

In the case of `O=C(NCCSc1ccc2[nH]c(=O)[nH]c2c1)c1cccn(Cc2ccc(F)c(F)c2)c1=O` [Cpd 118], the results for the IC50 at dephosphorylated PDK1 and at phosphorylated PDK1 were below 500 nM and 500 to 10000 nM, respectively.

As for `O=C(NCc1cccc(-c2ccc3nonc3c2)c1)c1cccn(Cc2ccc(F)c(F)c2)c1=O` [Cpd 219], the IC50 is 500 to 10000 nM on dephosphorylated PDK1 and above 10000 nM on phosphorylated PDK1.

For `Cc1nc(CNC(=O)c2cccn(Cc3ccc(F)c(F)c3)c2=O)sc1-c1c[nH]c2ncccc12` [Cpd 115], the figures for the IC50 at dephosphorylated PDK1 and on phosphorylated PDK1 were below 500 nM and 500 to 10000 nM, respectively.

As for `O=C(NCCCCCc1c[nH]c2ncccc12)c1cccn(Cc2cccc(Cl)c2)c1=O` [Cpd 108], the IC50 on dephosphorylated PDK1 and on phosphorylated PDK1 was 500 to 10000 nM throughout.

For the compound `O=C(NCCSc1ccc2[nH]c(=O)[nH]c2c1)c1cccn(Cc2ccc(F)c(F)c2)c1=O` [Cpd 117], the IC50 at dephosphorylated PDK1 and on phosphorylated PDK1 was 500 to 10000 nM each time.

`COc1ccnc(NCCCCCCNC(=O)c2cccn(Cc3cccc(F)c3)c2=O)n1` [Cpd 261]: the figures for the concentration for half-maximal inhibition (IC50) on dephosphorylated PDK1 and on phosphorylated PDK1 were below 500 nM and 500 to 10000 nM, respectively.

As to `COc1ccnc(NCCCCCNC(=O)c2cccn(Cc3cccc(Cl)c3)c2=O)n1` [Cpd 101], the IC50 at dephosphorylated PDK1 and on phosphorylated PDK1 was 500 to 10000 nM in each case.

As for `COc1ccnc(NCCCCCNC(=O)c2cccn(C(C)c3ccc(Cl)cc3)c2=O)n1` (stereo not drawn) [Cpd 254], the IC50 on dephosphorylated PDK1 is below 500 nM; on phosphorylated PDK1, 500 to 10000 nM.

In the case of `COc1ccnc(NCCC#CCCNC(=O)c2cccn(Cc3ccc(Cl)c(Cl)c3)c2=O)n1` [Cpd 255], the IC50 on dephosphorylated PDK1 and at phosphorylated PDK1 was below 500 nM throughout.

For the compound `O=C(N[C@H](COc1ccc2[nH]c(=O)[nH]c2c1)C1CCOC1)c1cccn(Cc2cc(F)c(F)c(F)c2)c1=O` (stereo partly drawn) [Cpd 185], the IC50 on dephosphorylated PDK1 and at phosphorylated PDK1 was below 500 nM throughout.

On to `COc1ccnc(NCCCCCNC(=O)c2cc(Br)cn(Cc3cccc(F)c3)c2=O)n1` [Cpd 253], for which the figures for the IC50 at dephosphorylated PDK1 and at phosphorylated PDK1 were below 500 nM and 500 to 10000 nM, respectively.

With `O=C(NCc1cc(-c2c[nH]c3ncccc23)[nH]n1)c1cccn(Cc2ccc(F)c(F)c2)c1=O` [Cpd 142], the IC50 on dephosphorylated PDK1 and at phosphorylated PDK1 was below 500 nM each time.

On to `COc1ccnc(NCC/C=C/CCNC(=O)c2cccn(Cc3cccc(Cl)c3)c2=O)n1` [Cpd 103, 1-(3,4-Difluoro-benzyl)-2-oxo-1,2-dihydro-pyridine-3-carboxylic acid 3-(4-amino-1H-pyrazolo[3,4-d]pyrimidin-3-yl)-benzylamides], for which the IC50 at dephosphorylated PDK1 is below 500 nM; at phosphorylated PDK1, 500 to 10000 nM.

For `COc1ccnc(NCCC#CCCNC(=O)c2cc(Cl)cn(C(C)c3ccc(Cl)cc3)c2=O)n1` (stereo not drawn) [Cpd 106], the IC50 at dephosphorylated PDK1 and on phosphorylated PDK1 was below 500 nM each time.

`COc1ccnc(NCCCCCNC(=O)c2cccn(Cc3cc(F)c(F)c(F)c3)c2=O)n1` [Cpd 267]: on dephosphorylated PDK1, the IC50 is below 500 nM.

In the case of `O=C(NCc1cccc(-c2cccc3[nH]ncc23)c1)c1cccn(Cc2ccc(F)c(F)c2)c1=O` [Cpd 329], the EC50 (in general, the concentration at which the effect is half-maximal) in the test on phospho-akt (Thr308) (setting [1]) is above 5 µM. Further, the IC50 on dephosphorylated PDK1 was 500 to 10000 nM.

Take `O=C(NCc1cccc(-c2cc[nH]c(=O)c2)c1)c1cccn(Cc2ccc(F)c(F)c2)c1=O` [Cpd 224]: the IC50 at dephosphorylated PDK1 is 500 to 10000 nM.

`Nc1ccc(-c2cccc(CNC(=O)c3cccn(Cc4ccc(F)c(F)c4)c3=O)c2)cn1` [Cpd 214]: the IC50 on dephosphorylated PDK1 was 500 to 10000 nM.

On to `CNC(=O)c1cc(-c2c[nH]c3ncccc23)cc(CNC(=O)c2cccn(Cc3ccc(F)c(F)c3)c2=O)n1` [Cpd 180], for which the EC50 in the test on phospho-akt (Thr308) (setting [1]) is below 1 µM. The IC50 at phosphorylated PDK1 was below 500 nM.

For `O=C(Nc1cccc2ccc(-c3c[nH]c4ncccc34)cc12)c1cccn(Cc2ccc(F)c(F)c2)c1=O` [Cpd 35], the EC50 in the test with phospho-akt (Thr308) (setting [1]) was above 5 µM; with phospho-akt (Thr308) (setting [2]), below 1 µM. Further, the IC50 at phosphorylated PDK1 was below 500 nM.

For `CN(C)C(=O)c1cc(-c2c[nH]c3ncccc23)cc(CNC(=O)c2cccn(Cc3ccc(F)c(F)c3)c2=O)n1` [Cpd 181], the EC50 with phospho-akt (Thr308) (setting [1]) lay in the range of 1 to 5 µM. Further, the IC50 on phosphorylated PDK1 is below 500 nM.

For the compound `O=C(NC(COc1ccc2[nH]c(=O)[nH]c2c1)c1ccc(O)cc1)c1cccn(Cc2cc(F)c(F)c(F)c2)c1=O` (stereo not drawn) [Cpd 188], the EC50 in the test on phospho-akt (Thr308) (setting [1]) lay in the range of 1 to 5 µM. Further, the IC50 at phosphorylated PDK1 is below 500 nM.

Take `COCCNC(=O)c1cnc2[nH]cc(-c3cccc(CNC(=O)c4cccn(Cc5ccc(F)c(F)c5)c4=O)c3)c2c1` [Cpd 30]: the EC50 in the test with phospho-akt (Thr308) (setting [1]) and in the test with phospho-akt (Thr308) (setting [2]) was below 1 µM in each case. For the same compound, the IC50 on phosphorylated PDK1 is below 500 nM.

As to `CCNC(=O)c1cnc2[nH]cc(-c3cccc(CNC(=O)c4cccn(Cc5ccc(F)c(F)c5)c4=O)c3)c2c1` [Cpd 28], the EC50 with phospho-akt (Thr308) (setting [1]) and in the test with phospho-akt (Thr308) (setting [2]) was below 1 µM each time. The IC50 on phosphorylated PDK1 was below 500 nM.

Turning to `O=C(NCc1cccc(-c2c[nH]c3ncccc23)c1)c1cccn(Cc2ccc(F)c(F)c2)c1=O` [Cpd 126], the EC50 is 1 to 5 µM in the test with phospho-akt (Thr308) (setting [1]) and below 1 µM in the test on phospho-akt (Thr308) (setting [2]). For the same compound, the IC50 on phosphorylated PDK1 is below 500 nM.

Regarding `O=C(NC(C(=O)O)c1ccc(-c2c[nH]c3ncccc23)s1)c1cccn(Cc2ccc(F)c(F)c2)c1=O` (stereo not drawn) [Cpd 335], the EC50 with phospho-akt (Thr308) (setting [2]) was above 5 µM. In addition, the IC50 on phosphorylated PDK1 was 500 to 10000 nM.

Turning to `N#Cc1cnc2[nH]cc(-c3cccc(CNC(=O)c4cccn(Cc5ccc(F)c(F)c5)c4=O)c3)c2c1` [Cpd 244], the EC50 in the test on phospho-akt (Thr308) (setting [1]) and in the test with phospho-akt (Thr308) (setting [2]) was below 1 µM in each case. At phosphorylated PDK1, the IC50 is below 500 nM.

Take `O=C(C[C@@H](NC(=O)c1cccn(Cc2ccc(F)c(F)c2)c1=O)c1ccc(-c2c[nH]c3ncccc23)s1)NC1CC1` [Cpd 33]: the 50% effective concentration (EC50) with phospho-akt (Thr308) (setting [1]) and in the test with phospho-akt (Thr308) (setting [2]) was 1 to 5 µM throughout. In addition, the IC50 on phosphorylated PDK1 is below 500 nM.

As for `O=C(Cc1cccc(C2CNc3ncccc32)c1)Nc1cccn(Cc2ccc(F)c(F)c2)c1=O` (stereo not drawn) [Cpd 44], the EC50 in the test on phospho-akt (Thr308) (setting [1]) fell in the range of 1 to 5 µM. On phosphorylated PDK1, the IC50 was below 500 nM.

With `O=C(Nc1cccn(Cc2ccc(F)c(F)c2)c1=O)c1cccc(-c2c[nH]c3ncccc23)c1` [Cpd 288], the IC50 on dephosphorylated PDK1 is below 500 nM.

For `C[Si](C)(C)CCOCn1nc(NC(=O)c2cccn(Cc3ccc(F)c(F)c3)c2=O)c2cc(-c3c[nH]c4ncccc34)ccc21` [Cpd 36], the EC50 with phospho-akt (Thr308) (read-out: Inhibition of P308 Akt in cells using MSD EC50) and in the test with phospho-akt (Thr308) (read-out: Reduction of Cellular Levels of Akt p308 By MSD ELISA (EC50 μM)) was above 5 µM each time. For the same compound, the IC50 on phosphorylated PDK1 was below 500 nM.
